Measured values as given in PMC2997755 (Clinical cancer research : an official journal of the …, 2009).
Like-named read-outs stand apart in the source and are kept apart here.

What was measured:
clinical = type: in vivo; settings: for AUC(0-inf) / AUC(0-t) / clearance / Cmax / half-life: human, plasma
[1] = human, in vivo
[2] = Vorinostat serum pharmacokinetics, cycle 1; type: in vivo; settings: for CL/F / AUC(0-inf) / AUC(0-t) / Cmax / half-life: mean (St dev); for AUC(0-inf) / AUC(0-t) / Cmax / half-life: human, serum, oral; for AUC(0-inf): AUCinf; for AUC(0-t): AUCt
[3] = cited from earlier work
[4] = Phase I safety and tolerability: DLTs, MTD, adverse events; settings: sequential schedule dose level -1b; days 6-12, with decitabine 10 mg/m^2/day on days 1-5
[5] = 100 mg, Sequential schedule, 100 mg BID, day 9 of cycle 1
[6] = 200 mg, Concurrent schedule, 200 mg BID, day 4 of cycle 1
[7] = 200 mg, Sequential schedule, 200 mg BID, day 9 of cycle 1
[8] = 200 mg, Sequential schedule, 200 mg TID, day 9 of cycle 1
[9] = 200 mg, Concurrent schedule, 200 mg TID, day 4 of cycle 1

Nc1ncn([C@H]2C[C@H](O)[C@@H](CO)O2)c(=O)n1 [decitabine, 5-aza-2'-deoxycytidine]
Pharmacokinetic parameters on day 1 versus day 5 within the same dose level (clinical; either schedule): No significant differences | AUC(0-inf) (clinical; intravenous, 10 mg/m2, AUCinf, Concurrent schedule, 10 mg/m^2, Day 1, mean (St dev)): 77.6 ng·h/mL | AUC(0-inf) (clinical; intravenous, 10 mg/m2, AUCinf, Concurrent schedule, 10 mg/m^2, Day 5, mean (St dev)): 57.4 ng·h/mL | AUC(0-inf) (clinical; intravenous, 10 mg/m2, AUCinf, Sequential schedule, 10 mg/m^2, Day 1, mean (St dev)): 48.4 ng·h/mL | AUC(0-inf) (clinical; intravenous, 10 mg/m2, AUCinf, Sequential schedule, 10 mg/m^2, Day 5, mean (St dev)): 57.8 ng·h/mL | AUC(0-t) (clinical; intravenous, 10 mg/m2, AUCt, Concurrent schedule, 10 mg/m^2, Day 1, mean (St dev)): 75.8 ng·h/mL | AUC(0-t) (clinical; intravenous, 10 mg/m2, AUCt, Concurrent schedule, 10 mg/m^2, Day 5, mean (St dev)): 56.3 ng·h/mL | AUC(0-t) (clinical; intravenous, 10 mg/m2, AUCt, Sequential schedule, 10 mg/m^2, Day 5, mean (St dev)): 55.8 ng·h/mL | clearance (clinical; intravenous, 10 mg/m2, CL, Concurrent schedule, 10 mg/m^2, Day 1, mean (St dev)): 4670 mL/min | clearance (clinical; intravenous, 10 mg/m2, CL, Concurrent schedule, 10 mg/m^2, Day 5, mean (St dev)): 5570 mL/min | clearance (clinical; intravenous, 10 mg/m2, CL, Sequential schedule, 10 mg/m^2, Day 1, mean (St dev)): 7600 mL/min | clearance (clinical; intravenous, 10 mg/m2, CL, Sequential schedule, 10 mg/m^2, Day 5, mean (St dev)): 6130 mL/min | Cmax (clinical; intravenous, 10 mg/m2, Cmax, Concurrent schedule, 10 mg/m^2, Day 1, mean (St dev)): 88.6 ng/mL | Cmax (clinical; intravenous, 10 mg/m2, Cmax, Concurrent schedule, 10 mg/m^2, Day 5, mean (St dev)): 62.9 ng/mL | Cmax (clinical; intravenous, 10 mg/m2, Cmax, Sequential schedule, 10 mg/m^2, Day 1, mean (St dev)): 57.5 ng/mL | Cmax (clinical; intravenous, 10 mg/m2, Cmax, Sequential schedule, 10 mg/m^2, Day 5, mean (St dev)): 67.5 ng/mL | half-life (clinical; intravenous, 10 mg/m2, t1/2, Concurrent schedule, 10 mg/m^2, Day 1, mean (St dev)): 16.2 min | half-life (clinical; intravenous, 10 mg/m2, t1/2, Concurrent schedule, 10 mg/m^2, Day 5, mean (St dev)): 16.2 min | half-life (clinical; intravenous, 10 mg/m2, t1/2, Sequential schedule, 10 mg/m^2, Day 1, mean (St dev)): 20.4 min | half-life (clinical; intravenous, 10 mg/m2, t1/2, Sequential schedule, 10 mg/m^2, Day 5, mean (St dev)): 22.8 min | AUC(0-inf) (clinical; intravenous, 15 mg/m2, AUCinf, Sequential schedule, 15 mg/m^2, Day 1, mean (St dev)): 116 ng·h/mL | AUC(0-inf) (clinical; intravenous, 15 mg/m2, AUCinf, Sequential schedule, 15 mg/m^2, Day 5, mean (St dev)): 116 ng·h/mL | AUC(0-t) (clinical; intravenous, 15 mg/m2, AUCt, Sequential schedule, 15 mg/m^2, Day 1, mean (St dev)): 112 ng·h/mL | AUC(0-t) (clinical; intravenous, 15 mg/m2, AUCt, Sequential schedule, 15 mg/m^2, Day 5, mean (St dev)): 114 ng·h/mL | clearance (clinical; intravenous, 15 mg/m2, CL, Sequential schedule, 15 mg/m^2, Day 1, mean (St dev)): 5670 mL/min | clearance (clinical; intravenous, 15 mg/m2, CL, Sequential schedule, 15 mg/m^2, Day 5, mean (St dev)): 3930 mL/min | Cmax (clinical; intravenous, 15 mg/m2, Cmax, Sequential schedule, 15 mg/m^2, Day 1, mean (St dev)): 129 ng/mL | Cmax (clinical; intravenous, 15 mg/m2, Cmax, Sequential schedule, 15 mg/m^2, Day 5, mean (St dev)): 142 ng/mL | half-life (clinical; intravenous, 15 mg/m2, t1/2, Sequential schedule, 15 mg/m^2, Day 1, mean (St dev)): 22.8 min | half-life (clinical; intravenous, 15 mg/m2, t1/2, Sequential schedule, 15 mg/m^2, Day 5, mean (St dev)): 19.8 min | AUC(0-inf) (clinical; intravenous, 20 mg/m2, AUCinf, Sequential schedule, 20 mg/m^2, Day 1, mean (St dev)): 119 ng·h/mL | AUC(0-inf) (clinical; intravenous, 20 mg/m2, AUCinf, Sequential schedule, 20 mg/m^2, Day 5, mean (St dev)): 165 ng·h/mL | AUC(0-t) (clinical; intravenous, 20 mg/m2, AUCt, Sequential schedule, 20 mg/m^2, Day 1, mean (St dev)): 115 ng·h/mL | AUC(0-t) (clinical; intravenous, 20 mg/m2, AUCt, Sequential schedule, 20 mg/m^2, Day 5, mean (St dev)): 161 ng·h/mL | clearance (clinical; intravenous, 20 mg/m2, CL, Sequential schedule, 20 mg/m^2, Day 1, mean (St dev)): 5280 mL/min | clearance (clinical; intravenous, 20 mg/m2, CL, Sequential schedule, 20 mg/m^2, Day 5, mean (St dev)): 3920 mL/min | Cmax (clinical; intravenous, 20 mg/m2, Cmax, Sequential schedule, 20 mg/m^2, Day 1, mean (St dev)): 135 ng/mL | Cmax (clinical; intravenous, 20 mg/m2, Cmax, Sequential schedule, 20 mg/m^2, Day 5, mean (St dev)): 198 ng/mL | half-life (clinical; intravenous, 20 mg/m2, t1/2, Sequential schedule, 20 mg/m^2, Day 1, mean (St dev)): 21.6 min | half-life (clinical; intravenous, 20 mg/m2, t1/2, Sequential schedule, 20 mg/m^2, Day 5, mean (St dev)): 25.2 min | half-life (clinical; iv, half-life, patients, 1-hour intravenous infusion): ~20 min | Dose proportionality of Cmax and AUC (clinical; sequential schedule, increasing doses of decitabine): did not produce dose proportional increases | RP2D (recommended phase II dose) [1]: 10 mg/m^2/day

O=C(CCCCCCC(=O)Nc1ccccc1)NO [vorinostat, suberoylanilide hydroxamic acid]
Cmax, AUCinf and AUCt, concurrent versus sequential schedule ([2]; 200mg BID dose level, p 0.09, 0.004 and 0.0005): lower in the concurrent schedule | CL/F ([2]; Concurrent schedule, 200 mg BID, day 4 of cycle 1): 5.3 (2.3) ml/min | CL/F ([2]; Sequential schedule, 100 mg BID, day 9 of cycle 1): 4.3(2.3) ml/min | CL/F ([2]; Sequential schedule, 200 mg BID, day 9 of cycle 1): 3(0.7) ml/min | CL/F ([2]; Sequential schedule, 200 mg TID, day 9 of cycle 1): 4(3.7) ml/min | AUC(0-inf) [2, 5]: 446 ng·h/mL | AUC(0-t) [2, 5]: 424 ng·h/mL | Cmax [2, 5]: 165 ng/mL | half-life ([2]; 100 mg, t1/2, Sequential schedule, 100 mg BID, day 9 of cycle 1): 83.4 min | AUC(0-inf) [2, 6]: 708 ng·h/mL | AUC(0-inf) [2, 7]: 1180 ng·h/mL | AUC(0-inf) [2, 8]: 1350 ng·h/mL | AUC(0-t) [2, 6]: 573 ng·h/mL | AUC(0-t) [2, 9]: 883 ng·h/mL | AUC(0-t) [2, 7]: 1020 ng·h/mL | AUC(0-t) [2, 8]: 1090 ng·h/mL | Cmax [2, 6]: 214 ng/mL | Cmax [2, 9]: 227 ng/mL | Cmax [2, 7]: 313 ng/mL | half-life ([2]; 200 mg, t1/2, Concurrent schedule, 200 mg BID, day 4 of cycle 1): 143 min | half-life ([2]; 200 mg, t1/2, Sequential schedule, 200 mg BID, day 9 of cycle 1): 153 min | half-life ([2]; 200 mg, t1/2, Sequential schedule, 200 mg TID, day 9 of cycle 1): 103 min | Dose proportionality of AUC and Cmax after a single administration ([2]; sequential schedule, dose increased from 100 mg to 200 mg): increased proportionaly | maximum tolerated dose, monotherapy ([3]; patients with hematologic malignancies): 250 mg orally thrice a day for 14 days every 21 days | maximum tolerated dose, monotherapy ([3]; patients with solid tumors): 200 mg orally twice a day continuously | RP2D (recommended phase II dose) [4]: 200 mg twice daily
